Measured values from patent US20230139445A1, “BACTERIAL CELLS WITH IMPROVED TOLERANCE TO DIACIDS” (priority 2016, published 2023).
Like-named read-outs stand apart in the source and are kept apart here.

Tests used:
[1] = system: Escherichia coli K-12 MG1655; test: Growth of K-12 MG1655 in varying concentrations of fumaric, itaconic, malic and succinic acid, Growth Profiler; assay type: cell-based
Protocol: (§1) Five colonies from wild-type K-12 MG1655 and 10 individual colonies deriving from each population were inoculated into 300 μL M9+1% glucose in 96 well deepwell plates and incubated in a 300 rpm plate shaker at 37° C. The next day, cells were diluted 10× in M9+1% glucose and 30 μL was transferred into clear-bottomed 96 well half-deepwell plates (with rectangular wells) containing M9+1% glucose and M9+1% glucose+52.78 g/L glutaric acid or 55.56 g/L adipic acid, such that the final concentration of glutaric acid or adipic acid was 47.5 g/L or 50 g/L, respectively. In addition, cryogenic glycerol stocks of the overnight culture were saved in a 96 well plate format. Half deepwell plates were incubated at 37° C. with 225 rpm shaking in a Growth Profiler (Enzyscreen), with optical scans of the plates taken at 15 minute intervals. Green pixel values integrated over a 1 mm diameter circular area in each well were converted to OD600 values using a previously determined calibration between OD600 and green pixel values.
(§2) Additionally, each evolved isolate was tested for cross-tolerance toward other dicarboxylic acids of interest. […] All diacids tested were either the neutral sodium salts, or the free diacid was neutralized with sodium hydroxide to pH 7.0 for testing.

[2] = system: Escherichia coli K-12 MG1655 and evolved isolates; assay type: cell-based; details: 45 g/L fumaric acid
Protocol: as §1, §2

O=C(O)/C=C/C(=O)O [fumaric acid]
μ (mean) ([1]; growth rate of K-12 MG1655, 10 g/L diacid (sodium salt)): 0.662 h^1
μ (mean) ([1]; growth rate of K-12 MG1655, 20 g/L diacid (sodium salt)): 0.615 h^1
μ (mean) ([1]; growth rate of K-12 MG1655, 30 g/L diacid (sodium salt)): 0.482 h^1
μ (mean) ([1]; growth rate of K-12 MG1655, 40 g/L diacid (sodium salt)): 0.285 h^1
μ (mean) ([1]; growth rate of K-12 MG1655, 50 g/L diacid (sodium salt)): 0.116 h^1
tlag (mean) ([1]; lag time of K-12 MG1655, 10 g/L diacid (sodium salt)): 5.8 h
tlag (mean) ([1]; lag time of K-12 MG1655, 20 g/L diacid (sodium salt)): 6.9 h
tlag (mean) ([1]; lag time of K-12 MG1655, 30 g/L diacid (sodium salt)): 9.5 h
tlag (mean) ([1]; lag time of K-12 MG1655, 40 g/L diacid (sodium salt)): 15.4 h
tlag (mean) ([1]; lag time of K-12 MG1655, 50 g/L diacid (sodium salt)): 30.2 h
growth rate μ (mean) ([2]; strain ADIP1-1): 0.347 h⁻¹
lag time tlag (mean) ([2]; strain ADIP1-1): 10.2 h
growth rate μ (mean) ([2]; strain ADIP1-9): 0.328 h⁻¹
lag time tlag (mean) ([2]; strain ADIP1-9): 9.8 h
growth rate μ (mean) ([2]; strain ADIP2-5): 0.358 h⁻¹
lag time tlag (mean) ([2]; strain ADIP2-5): 11.4 h
growth rate μ (mean) ([2]; strain ADIP2-6): 0.380 h⁻¹
lag time tlag (mean) ([2]; strain ADIP2-6): 11.0 h
growth rate μ (mean) ([2]; strain ADIP2-10): 0.353 h⁻¹
lag time tlag (mean) ([2]; strain ADIP2-10): 11.0 h
growth rate μ (mean) ([2]; strain ADIP3-2): 0.327 h⁻¹
lag time tlag (mean) ([2]; strain ADIP3-2): 9.4 h
growth rate μ (mean) ([2]; strain ADIP3-4): 0.324 h⁻¹
lag time tlag (mean) ([2]; strain ADIP3-4): 9.7 h
growth rate μ (mean) ([2]; strain ADIP3-8): 0.343 h⁻¹
lag time tlag (mean) ([2]; strain ADIP3-8): 10.1 h
growth rate μ (mean) ([2]; strain ADIP4-1): 0.264 h⁻¹
lag time tlag (mean) ([2]; strain ADIP4-1): 11.9 h
growth rate μ (mean) ([2]; strain ADIP4-8): 0.254 h⁻¹
lag time tlag (mean) ([2]; strain ADIP4-8): 12.4 h
growth rate μ (mean) ([2]; strain ADIP5-2): 0.280 h⁻¹
lag time tlag (mean) ([2]; strain ADIP5-2): 10.6 h
growth rate μ (mean) ([2]; strain ADIP5-6): 0.444 h⁻¹
lag time tlag (mean) ([2]; strain ADIP5-6): 9.0 h
growth rate μ (mean) ([2]; strain ADIP6-3): 0.275 h⁻¹
lag time tlag (mean) ([2]; strain ADIP6-3): 11.3 h
growth rate μ (mean) ([2]; strain ADIP6-9): 0.250 h⁻¹
lag time tlag (mean) ([2]; strain ADIP6-9): 12.3 h
growth rate μ (mean) ([2]; strain ADIP6-10): 0.308 h⁻¹
lag time tlag (mean) ([2]; strain ADIP6-10): 10.0 h
growth rate μ (mean) ([2]; strain ADIP7-2): 0.312 h⁻¹
lag time tlag (mean) ([2]; strain ADIP7-2): 10.1 h
growth rate μ (mean) ([2]; strain ADIP7-5): 0.326 h⁻¹
lag time tlag (mean) ([2]; strain ADIP7-5): 10.0 h
growth rate μ (mean) ([2]; strain ADIP8-3): 0.202 h⁻¹
lag time tlag (mean) ([2]; strain ADIP8-3): 14.4 h
growth rate μ (mean) ([2]; strain ADIP8-7): 0.188 h⁻¹
lag time tlag (mean) ([2]; strain ADIP8-7): 16.1 h
growth rate μ (mean) ([2]; strain ADIP8-10): 0.221 h⁻¹
lag time tlag (mean) ([2]; strain ADIP8-10): 14.3 h
growth rate μ (mean) ([2]; strain GLUT1-3): 0.293 h⁻¹
lag time tlag (mean) ([2]; strain GLUT1-3): 13.3 h
growth rate μ (mean) ([2]; strain GLUT1-9): 0.274 h⁻¹
lag time tlag (mean) ([2]; strain GLUT1-9): 14.9 h
growth rate μ (mean) ([2]; strain GLUT1-10): 0.289 h⁻¹
lag time tlag (mean) ([2]; strain GLUT1-10): 18.9 h
growth rate μ (mean) ([2]; strain GLUT2-1): 0.277 h⁻¹
lag time tlag (mean) ([2]; strain GLUT2-1): 13.5 h
growth rate μ (mean) ([2]; strain GLUT2-9): 0.267 h⁻¹
lag time tlag (mean) ([2]; strain GLUT2-9): 12.2 h
growth rate μ (mean) ([2]; strain GLUT2-10): 0.312 h⁻¹
lag time tlag (mean) ([2]; strain GLUT2-10): 12.3 h
growth rate μ (mean) ([2]; strain GLUT3-5): 0.263 h⁻¹
lag time tlag (mean) ([2]; strain GLUT3-5): 16.6 h
growth rate μ (mean) ([2]; strain GLUT3-7): 0.264 h⁻¹
lag time tlag (mean) ([2]; strain GLUT3-7): 16.2 h
growth rate μ (mean) ([2]; strain GLUT3-9): 0.305 h⁻¹
lag time tlag (mean) ([2]; strain GLUT3-9): 24.3 h
growth rate μ (mean) ([2]; strain GLUT4-1): 0.295 h⁻¹
lag time tlag (mean) ([2]; strain GLUT4-1): 14.6 h
growth rate μ (mean) ([2]; strain GLUT4-4): 0.287 h⁻¹
lag time tlag (mean) ([2]; strain GLUT4-4): 15.3 h
growth rate μ (mean) ([2]; strain GLUT4-10): 0.274 h⁻¹
lag time tlag (mean) ([2]; strain GLUT4-10): 16.3 h
growth rate μ (mean) ([2]; strain GLUT5-4): 0.386 h⁻¹
lag time tlag (mean) ([2]; strain GLUT5-4): 14.1 h
growth rate μ (mean) ([2]; strain GLUT5-5): 0.375 h⁻¹
lag time tlag (mean) ([2]; strain GLUT5-5): 15.1 h
growth rate μ (mean) ([2]; strain GLUT5-9): 0.370 h⁻¹
lag time tlag (mean) ([2]; strain GLUT5-9): 14.9 h
growth rate μ (mean) ([2]; strain GLUT6-4): 0.281 h⁻¹
lag time tlag (mean) ([2]; strain GLUT6-4): 13.8 h
growth rate μ (mean) ([2]; strain GLUT6-5): 0.279 h⁻¹
lag time tlag (mean) ([2]; strain GLUT6-5): 13.2 h
growth rate μ (mean) ([2]; strain GLUT6-10): 0.277 h⁻¹
lag time tlag (mean) ([2]; strain GLUT6-10): 14.2 h
growth rate μ (mean) ([2]; strain GLUT7-2): 0.304 h⁻¹
lag time tlag (mean) ([2]; strain GLUT7-2): 14.6 h
growth rate μ (mean) ([2]; strain GLUT7-6): 0.261 h⁻¹
lag time tlag (mean) ([2]; strain GLUT7-6): 19.5 h
growth rate μ (mean) ([2]; strain GLUT7-7): 0.193 h⁻¹
lag time tlag (mean) ([2]; strain GLUT7-7): 22.0 h
growth rate μ (mean) ([2]; strain GLUT8-5): 0.247 h⁻¹
lag time tlag (mean) ([2]; strain GLUT8-5): 14.4 h
growth rate μ (mean) ([2]; strain GLUT8-6): 0.272 h⁻¹
lag time tlag (mean) ([2]; strain GLUT8-6): 43.5 h
growth rate μ (mean) ([2]; strain GLUT8-9): 0.196 h⁻¹
lag time tlag (mean) ([2]; strain GLUT8-9): 54.3 h
growth rate μ (mean) ([2]; strain MG1655 (Table 26)): 0.216 h⁻¹
lag time tlag (mean) ([2]; strain MG1655 (Table 26)): 16.6 h
growth rate μ (mean) ([2]; strain MG1655 (Table 27)): 0.212 h⁻¹
lag time tlag (mean) ([2]; strain MG1655 (Table 27)): 15.5 h
